Values quoted from earlier work, collected in patent US20090239783A1, “SYNERGISTIC EFFECTS OF COMBINED ADMINISTRATION OF MIRTAZAPINE AND A STIMULANT COMPOUND” (priority 2004, published 2009).

Experiments:
histamine (H1) = histamine (H1) (Homo sapiens, UniProt P35367)
Sequence of histamine (H1) (P35367 whole entry): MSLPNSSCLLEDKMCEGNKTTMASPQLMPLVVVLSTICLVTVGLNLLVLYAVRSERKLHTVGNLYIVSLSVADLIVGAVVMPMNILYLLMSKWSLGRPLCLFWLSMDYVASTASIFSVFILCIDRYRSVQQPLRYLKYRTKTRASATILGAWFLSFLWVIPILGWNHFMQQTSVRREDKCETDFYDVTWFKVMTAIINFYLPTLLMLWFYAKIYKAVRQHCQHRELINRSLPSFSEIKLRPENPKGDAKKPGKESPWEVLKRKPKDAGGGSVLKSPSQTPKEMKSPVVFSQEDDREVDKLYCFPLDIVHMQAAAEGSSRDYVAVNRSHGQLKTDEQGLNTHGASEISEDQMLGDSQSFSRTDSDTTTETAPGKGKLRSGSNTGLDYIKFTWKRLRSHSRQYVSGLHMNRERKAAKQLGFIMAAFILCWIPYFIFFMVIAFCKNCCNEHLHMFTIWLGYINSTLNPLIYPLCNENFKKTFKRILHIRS

solubility in water: slightly soluble
affinity for 5-HT1 receptors (5-HT1 receptors): weak
histamine (H1) antagonist properties (histamine (H1)): very weak
SMILES: CN1CCN2c3ncccc3Cc3ccccc3C2C1 (stereo not shown) [Mirtazapine, 1,2,3,4,10,14b-hexahydro-2-methylpyrazino [2,1-a] pyrido [2,3-c] benzazepine]
muscarinic anticholinergic properties (muscarinic): very weak
